Values of other authors as cited in PMC3954986 (Chemmedchem, 2013).
pIC50: −log10 of the molar value.

Test system: PLpro
Conditions: cited from earlier work

SMILES	pIC50
Sc1ncnc2nc[nH]c12 [Inhibitor 6MP, 6‐mercaptopurine]	4.70 to 5.30
Nc1nc2nc[nH]c2c(=S)[nH]1 [Inhibitor 6TG, 6‐thioguanine]	4.70 to 5.30
